{
  "source": "patent US20170239239A1",
  "about": "“Method for Inducing a Sustained Immune Response” (Immune Therapeutics Inc., priority 2016, published 2017)",
  "key": {"prostate cancer": {"test_system": "prostate cancer", "assay": "Case report, stage 3 prostate cancer", "format": "in vivo, human", "conditions": "person; 4.5 mg nightly with Docetaxel", "description": "person was diagnosed with stage 3 prostate cancer which they were originally treated for 5 years before began 3 rounds of Docetaxel (Taxotere®)."}, "colon cancer": {"test_system": "colon cancer", "assay": "Case report, stage 4 colon cancer", "format": "in vivo, human", "description": "A person diagnosed with stage 4-colon cancer, 2007 which had spread to their lungs and liver, they removed 40% of their colon and began a round of chemotherapy and three surgeries removed 40% of their colon, half is their right lung and 75% of their liver. During the next 18 months received 47 weeks of chemotherapy (a combination of 4 chemo drugs at once)."}, "Crohn's disease [1]": {"test_system": "Crohn's disease", "assay": "Randomized placebo-controlled study in 40 subjects with active Crohn's disease", "format": "in vivo, human", "description": "Forty subjects with active Crohn's disease were enrolled in the study. […] Providers and patients were masked to treatment assignment. The primary outcome was the proportion of subjects in each arm with a 70-point decline in Crohn's Disease Activity Index score (CDAI). The secondary outcome included mucosal healing based upon colonoscopy appearance and histology."}, "pleural mesothelioma": {"test_system": "pleural mesothelioma", "assay": "Case report, stage 4 pleural mesothelioma", "format": "in vivo, human", "conditions": "person; 4.5 mg nightly, no chemotherapy; February 2009 and 2010", "protocol": "Person diagnosed with stage 4 pleural mesothelioma in December of 2008 and patients after consult with two other doctors it was determined due to the state of the diseases and other health issues to watch the tumors and not do chemotherapy. Prognosis was 6 to 12 months. Patient started 4.5 mg nightly and received on other treatment but did change diet."}, "HIV/AIDS patients": {"test_system": "HIV/AIDS patients", "assay": "Naltrexone as adjunct therapy, 50 HIV patients in Africa", "format": "in vivo, human", "description": "Naltrexone as an adjunct therapy with HIV/AIDS patients. […] HIV disease is associated with a new constellation of problems, generally referred to as “non-AIDS morbidity”, and, in the popular press, “premature aging. […] at risk for developing a number of non-AIDS conditions, including cardiovascular disease, cancer, kidney disease, liver disease, osteopenia/osteoporosis and neurocognitive disease (collectively referred to as “serious non-AIDS events”). Malignancies associated with infections such as human papilloma virus (including uro-genital and head and neck cancers), Epstein Barr Virus (including Hodgkins disease), and hepatitis B and C (hepatocellular carcinoma), are also relatively common in HIV-infected adult. […] Subtle elevations in many of these biomarkers are associated with dramatic increases in the risk of subsequent disease, including all-cause mortality For example, as compared to a well-matched uninfected population, treated HIV-infected adults have approximately 50 to 100% higher levels of the inflammatory cytokine interleukin-6 (IL-6)^(32). […] Risk factors for impaired CD4 T-cell recovery include low pre-treatment CD4+ T cell count nadir, co-infection with other viruses such as hepatitis C, older age, and perhaps viral factors(24). Suboptimal treatment-mediated CD4+ T cell outcomes likely have clinical consequences given the consistent association between CD4+ T cell counts during ART and elevated risk of many co-morbidities (e.g., heart disease, cancer) and all-cause mortality. Chronic signaling through the interferon-alpha pathway may contribute to this inflammatory disease^(32), as can the impact of virus production/entry (without productive infection) on pyroptosis, which is a highly inflammatory process that can cause death of affected and neighboring cells. The frequency of activated T cells remains elevated during chronic treatment and appears related to size of the HIV reservoir and pace of immune reconstitution although the effect of this marker in predicting overall morbidity and mortality is not as strong as some of the innate immune system inflammatory markers^(37).\nWe believe that long term monitoring of patients will show a reduction in non-AIDS morbidity."}, "Autoimmune Hepatitis": {"test_system": "Autoimmune Hepatitis", "assay": "Case report, Autoimmune Hepatitis Type 1", "format": "in vivo, human", "conditions": "first two weeks"}, "Hepatitis B": {"test_system": "Hepatitis B", "assay": "Case report, Hepatitis B", "format": "in vivo, human"}, "multiple sclerosis": {"test_system": "multiple sclerosis", "assay": "Case reports, multiple sclerosis"}, "Systemic Lupus": {"test_system": "Systemic Lupus", "assay": "Case reports, systemic lupus", "conditions": "person"}, "[2]": {"conditions": "normal volunteers, HIV positive, multiple sclerosis, autism, fibromyalgia, diabetes, and cancer patients; cited from earlier work"}, "psoriatic arthritis": {"test_system": "psoriatic arthritis", "assay": "Case report, psoriatic arthritis", "format": "in vivo, human"}, "autism [3]": {"test_system": "autism", "assay": "10 studies of naltrexone in 155 children with autism", "format": "in vivo, human", "description": "155 children participated in 10 studies; 27 received placebo."}, "Crohn's disease [4]": {"test_system": "Crohn's disease", "assay": "Pilot clinical trial in children with moderate to severe Crohn's disease", "format": "in vivo, human", "protocol": "A pilot clinical trial was conducted in children with moderate to severe Crohn's disease. Fourteen subjects with a mean age of 12.3 years (range, 8 to 17 y) were enrolled. […] Safety and toxicity were monitored by physical examinations and blood chemistries. Clinical activity was assessed by the Pediatric Crohn's Disease Activity Index (PCDAI) and Quality of life was monitored by the Impact III survey."}, "[5]": {"test_system": "patients with hematologic malignancies", "conditions": "cited from earlier work"}, "autism [6]": {"test_system": "autism", "assay": "Randomized, double blind, placebo-controlled study in autism", "format": "in vivo, human"}, "[7]": {"conditions": "of the 128 that received naltrexone"}},
  "data": [
    {"smiles": "O=C1CC[C@@]2(O)[C@H]3Cc4ccc(O)c5c4[C@@]2(CCN3CC2CC2)[C@H]1O5", "note": "[Immediate release naltrexone, naltrexone]", "values": [
      {"measurement": "blood work", "setting": "prostate cancer", "result": "stayed stable"},
      {"measurement": "overall quality of life", "setting": "prostate cancer", "result": "much better"},
      {"measurement": "completion of chemotherapy protocol", "setting": "colon cancer; person, 4.5 mg nightly with chemotherapy", "result": "without any major side effects"},
      {"measurement": "scans every six months", "setting": "colon cancer; until June of 2015", "result": "cancer free"},
      {"measurement": "subjects with at least a 70-point decline in CDAI scores", "setting": "Crohn's disease [1]; 4.5-mg daily oral, placebo 40% (p=0.009)", "result": "Eighty-eight"},
      {"measurement": "remission with a CDEIS score<6", "setting": "Crohn's disease [1]; after 12 weeks, placebo 8%", "result": 33, "unit": "%"},
      {"measurement": "endoscopic response (5-point decline in CDEIS)", "setting": "Crohn's disease [1]; after 12 weeks, placebo 28% (p=0.008)", "result": 78, "unit": "%"},
      {"measurement": "CAT scans", "setting": "pleural mesothelioma", "result": "no measurable growth of tumors"},
      {"measurement": "opportunistic infection", "setting": "HIV/AIDS patients; long term", "result": "reduction"},
      {"measurement": "quality of life", "setting": "HIV/AIDS patients; long term", "result": "higher"},
      {"measurement": "Th1/Th2 balance", "setting": "HIV/AIDS patients; with standard of care (ART)", "result": "shift from Th1 (pro-inflammatory) to Th2 (anti-inflammatory)"},
      {"measurement": "inflammatory cytokine", "setting": "HIV/AIDS patients; with standard of care (ART)", "result": "Secreased"},
      {"measurement": "side effects", "setting": "Autoimmune Hepatitis", "result": "vivid dreams and mild indigestion"},
      {"measurement": "ALT/AST", "setting": "Hepatitis B; child, 1 mg", "result": "decreased to normal"},
      {"measurement": "viral load", "setting": "Hepatitis B; child, 1 mg, within one month, from 59.2 million", "result": "53,000"},
      {"measurement": "serology", "setting": "Hepatitis B; within 7 months", "result": "Sero-conversion to negative antigens and positive antibodies"},
      {"measurement": "viral load", "setting": "Hepatitis B; within 7 months", "result": 551},
      {"measurement": "MRI over the last 8 years", "setting": "multiple sclerosis; person six", "result": "no progression of the disease"},
      {"measurement": "relapses", "setting": "multiple sclerosis; person six, 4.5 mg at bedtime since 2002", "result": "not had a one relapse"},
      {"measurement": "MRI", "setting": "multiple sclerosis; person, SPMS, 1.5 mg to 3 mg, January of 2011", "result": "reduced plaque and lesion size"},
      {"measurement": "mobility", "setting": "multiple sclerosis; person, Secondary Progressive, 1.5 mg to 3 mg", "result": "upgraded from wheelchair to cane"},
      {"measurement": "time to walking again with a cane", "setting": "multiple sclerosis; person, wheelchair bound, 3 mg nightly", "result": "≤ 10", "unit": "days"},
      {"measurement": "Exacerbations", "setting": "multiple sclerosis; person, 1.5 mg increasing to 4.5 mg nightly, with hormones and Cortef", "result": "became less frequent and have stopped"},
      {"measurement": "disease course", "setting": "multiple sclerosis; person, 4.5 mg for seven months", "result": "the disease has stabilized and the progressive deterioration has stopped"},
      {"measurement": "relapses", "setting": "multiple sclerosis; person, 4.5 mg nightly, update 2010", "result": "no relapses"},
      {"measurement": "side effects", "setting": "multiple sclerosis; person, after increase to 4.5 mg", "result": "some insomnia"},
      {"measurement": "mobility", "setting": "Systemic Lupus; 3 mg, within three weeks", "result": "improved mobility"},
      {"measurement": "hospital stays", "setting": "Systemic Lupus; 4.5 mg, since March of 2013", "result": "no hospital stays"},
      {"measurement": "ANA", "setting": "Systemic Lupus; for 7 years", "result": "normal"},
      {"measurement": "Lupus status", "setting": "Systemic Lupus; liquid form titrated from 0.1 mg to 1.5 mg", "result": "in remission"},
      {"measurement": "tolerability", "setting": "Systemic Lupus; started at 1.5 mg", "result": "unable to take it due to insomnia and pruritis"},
      {"measurement": "toxicity", "setting": "[2]", "result": "no major toxicity"},
      {"measurement": "use of other medication", "setting": "psoriatic arthritis; person, 4.5 mg at bedtime, within 10 days", "result": "able to discontinue all paid medications as well as the Humira"},
      {"measurement": "disease course", "setting": "psoriatic arthritis; six months", "result": "the disease has stabilized and the progressive deterioration has stopped"},
      {"measurement": "side effects", "setting": "autism [3]; in vivo", "result": "mild"},
      {"measurement": "tolerability", "setting": "autism [3]; in vivo", "result": "generally well tolerated"},
      {"measurement": "children with statistically significant improvement in irritability and hyperactivity", "setting": "autism [3]; [7]", "result": 77, "unit": "%"},
      {"measurement": "children with statistically significant improvement in irritability and hyperactivity, number", "setting": "autism [3]; [7]", "result": 98},
      {"measurement": "PCDAI score", "setting": "Crohn's disease [4]; 0.1 mg/kg orally, 8-week course, pretreatment 34.2±3.3, P=0.005", "result": "21.7±3.9"},
      {"measurement": "Systemic and social quality of life (Impact III)", "setting": "Crohn's disease [4]; P=0.035", "result": "improved"},
      {"measurement": "improved with mild disease activity (decrease in PCDAI score by at least 10 points)", "setting": "Crohn's disease [4]; end of the study", "result": 67, "unit": "%"},
      {"measurement": "in remission (score≦10)", "setting": "Crohn's disease [4]; end of the study", "result": "Twenty-five"},
      {"measurement": "tolerability", "setting": "Crohn's disease [4]; oral", "result": "well tolerated without any serious adverse events"},
      {"measurement": "EORTC QLQ-C30 social functioning vs placebo", "setting": "[5]; 3 mg capsules daily plus routine treatment, one month follow-up (p<0.05)", "result": "better condition"},
      {"measurement": "EORTC QLQ-C30 social functioning, role functioning, nausea and vomiting and appetite loss vs placebo", "setting": "[5]; 3 mg daily, 3-month follow-up (all p-values<0.05)", "result": "better"},
      {"measurement": "EORTC QLQ-C30 physical, social, role functioning, global quality of life, nausea and vomiting and appetite loss vs placebo", "setting": "[5]; 3 mg daily, 5-month follow-up", "result": "significantly better"},
      {"measurement": "blood laboratory tests", "setting": "[5]; 3 mg daily", "result": "no changes"},
      {"measurement": "white blood cell, red blood cell and plate count", "setting": "[5]; 3 mg daily", "result": "remained stable"},
      {"measurement": "Actometer readings", "setting": "autism [6]; children very active at baseline", "result": "improved in two children"},
      {"measurement": "Changes in parent measures (CGI, Conners Impulsivity-Hyperactivity Factor, SE-Restlessness) and Teacher CGI", "setting": "autism [6]; in vivo", "result": "achieved statistical significance"},
      {"measurement": "subjects improved in two or more settings", "setting": "autism [6]; in vivo", "result": "Eight of 13"}
    ]}
  ]
}
